According to patent US20150374646A1, “TREATMENT OF CANCER AND OTHER CONDITIONS USING A TRANSCRIPTION FACTOR MODULATOR” (C & C BIOPHARMA, LLC, priority 2013, published 2015):

Key:
MV4-11 cells = experiment: Subcutaneous MV4-11 leukemia tumor growth in NOD/SCID mice (Example 5); format: in vivo; conditions: 100 mg/kg p.o. × 27 days
Method: Female Nonobese Diabetic/Severe Combined Immunodeficiency (NOD/SCID) mice that were 4-6 weeks old were used in the experiment. The mice were fed under specific pathogen free (SPF) conditions. Food and water were available to the mice at will. A suspension of 1×10^7 cells per mouse B-myelomonocytic leukemia MV4-11 cells (0.2 mL) in logarithmic phase were inoculated subcutaneously into the right back of the NOD/SCID nude mice.
The general conditions of the mice and the growth of the transplanted tumor were monitored. […] The control group received an intraperitoneal (IP) injection of 0.2 mL of solvent (20% DMSO, 80% of 20% w/v (2-hydroxypropyl)-β-cyclodextrin made in PBS). […] The high dosage group received an intraperitoneal injection of 50 mg/kg/day of YT30 (0.2 mL in volume) suspended in solvent (20% DMSO, 80% of 20% w/v (2-hydroxypropyl)-β-cyclodextrin made in PBS), while the low dosage group received IP injection of 25 mg/kg/day YT30 (0.2 mL in volume). Frequency of the administration was once per day and the experiment lasted 27 days after treatment started.
The body weights of the mice were recorded prior to the start of treatment and twice every week thereafter. Each mouse of every group was monitored daily for any other symptoms of side effects including change in behavior, activity or posture, areas of redness and swelling, and food and water withdrawal. Caliper measurements of the longest perpendicular tumor diameters were performed every 2 days to estimate the tumor volume; the following formula: 4π/3×(width/2)^2×(length/2) was used to calculate the three-dimensional volume of an ellipse. The tumor inhibition rate was calculated according to tumor volume: Tumor inhibition rate by size (%)=(Tumor volume of the control group−Tumor volume of the treated group)/Tumor volume of the control group×100. The mice were euthanized on the next day after the final injection and the subcutaneous tumor nodules were taken out intact and weighed. The tumor inhibition rate was calculated again according to tumor weight: Tumor inhibition rate by weight (%)=(Tumor weight of the control group−Tumor weight of the treated group)/Tumor weight of the control group×100).

K562 cells = experiment: Subcutaneous K562 (CML) tumor growth in SCID mice (Example 6); format: in vivo; conditions: Imatinib 100 mg/kg p.o. × 16 days, SCID mice, K562 tumor
Method: Male Severe Combined Immunodeficiency (SCID) mice that were 4-6 weeks old were used in the experiment. The mice were fed under specific pathogen free (SPF) conditions. Food and water were available to the mice at will. A suspension of 8×10^6 chronic myelogenous leukemia K562 cells (0.2 mL) was inoculated subcutaneously into the right back of the SCID mice.
The general conditions of the mice and the growth of the transplanted tumor were monitored. […] The control group received an intraperitoneal injection (IP) of 0.2 mL solvent (20% DMSO, 80% of 20% w/v (2-hydroxypropyl)-β-cyclodextrin made in PBS). […] The YT30 treated groups received either intraperitoneal injection of 50 mg/kg/day of YT30 (0.2 mL in volume) suspended in solvent (20% DMSO, 80% of 20% w/v (2-hydroxypropyl)-β-cyclodextrin made in PBS) or oral gavage of 90 mg/kg/day YT30 in solvent (Cremophor RH40:TW80:PEG400 (2:1:1)). Frequency of the administration was once per day and the experiment lasted 16 days after initiation of the treatment.
The body weights of the mice were recorded prior to the start of treatment and twice every week thereafter. Each mouse of every group was monitored daily for any other symptoms of side effects including change in behavior, activity or posture, areas of redness and swelling, and food and water withdrawal. Caliper measurements of the longest perpendicular tumor diameters were performed every 2 days to estimate the tumor volume; the following formula: 4π/3×(width/2)^2×(length/2) was used to calculate the three-dimensional volume of an ellipse. The tumor inhibition rate was calculated according to tumor volume: Tumor inhibition rate by size (%)=(Tumor volume of the control group−Tumor volume of the treated group)/Tumor volume of the control group×100. The SCID mice were euthanized 2 hours after the final injection and the subcutaneous tumor nodules were taken out intact and weighed. The tumor inhibition rate was calculated again according to tumor weight: Tumor inhibition rate by weight (%)=(Tumor weight of the control group−Tumor weight of the treated group)/Tumor weight of the control group×100.

Nalm-6 [1] = experiment: cells; conditions: Homo sapiens, NALM-6, 72 h, read-out: 72 hr growth inhibition (%)
Method: (§1) Various human leukemia cells were grown to the logarithmic growth phase and seeded into 24-well plates. […] Treated cells were further incubated for 72 hours and then were examined for cell proliferation. Cell proliferation was determined using the CellTiter-Glo Luminescence Cell Viability assay (Promega Corporation, Madison, Wis.) according to the manufacturer's protocol. The calculated inhibition rate was determined with the following formula: Inhibition rate (%)=(1−Luminescence of experimental group/Luminescence of control group)×100. IC50 is the calculated concentration of a compound needed to inhibit half of the maximum cell growth (equivalent to cell growth in control group) based on the corresponding dose-response curve under the described experimental conditions.
Growth inhibition experiments were performed as previously described.

HL60 = experiment: Leukemia cell growth inhibition, CellTiter-Glo (Example 1); format: cell-based, human; conditions: HL60 cells, 4 μM
Method: as §1

Nalm-6 [2] = experiment: as above; format: cell-based, human; conditions: Nalm-6 cells, 4 μM
Method: as §1

REH = experiment: as above; format: cell-based, human; conditions: REH cells, 4 μM
Method: as §1

| Compound | Average body weight (g, x ± s) End point (MV4-11 cells) [g] | Body weight change (%) (MV4-11 cells) | Tumor growth Inhibition by size (%) (MV4-11 cells) | Tumor growth Inhibition by weight (%) (MV4-11 cells) | Tumor size (mm^3) (MV4-11 cells) | Tumor weight (g, x ± s) (MV4-11 cells) [g] | Body weight change (K562 cells) [%] | Tumor growth inhibition by size (K562 cells) [%] | Tumor growth inhibition by weight (K562 cells) [%] | Average body weight, End point (K562 cells; end point, x ± s) [g] | Average body weight, Initial (K562 cells; initial (before treatment), x ± s) [g] | Tumor size (K562 cells; x ± s) [mm^3] | inhibition at 5 µM (Nalm-6 [1]) [%] | inhibition at 10 µM (Nalm-6 [1]) [%] | Growth inhibition (FIG. 1) (HL60) | Growth inhibition (FIG. 1) (Nalm-6 [2]) | Growth inhibition (FIG. 1) (REH) |
| --- | --- | --- | --- | --- | --- | --- | --- | --- | --- | --- | --- | --- | --- | --- | --- | --- | --- |
| Cc1ccc(NC(=O)c2ccc(CN3CCN(C)CC3)cc2)cc1Nc1nccc(-c2cccnc2)n1 [Imatinib, imatinib, reference compound] | 22.06 ± 1.74 | −1.0 | 52.5 | 41.7 | 1040.51 ± 422.38 | 1.29 ± 0.42 | −3.26 | 43.97 | 27.91 | 18.37 ± 0.54 | 18.99 ± 1.23 | 1744.05 ± 1049.95 | 0 | 44 | – | – | – |
| Nc1ccccc1NC(=O)Cc1cccc(CC(=O)Nc2ccccc2N)c1 [YT19] | – | – | – | – | – | – | – | – | – | – | – | – | – | – | failed to inhibit cell growth | failed to inhibit cell growth | failed to inhibit cell growth |
